Results taken from patent publication US5468734A, “Prophylactic and remedial preparation for diseases attendant on hyperglycemia, and wholesome food” (Godo Shusei Co., Ltd., priority 1992, dated 1995).

How the values were obtained:
[1] = tested on: maltase (carbohydrase derived from rabbit small intestine mucous membrane); assay: Action to inhibit the hydrolytic activity of homogenate prepared from rabbit small intestine mucous membrane: maltase inhibition; type: biochemical; conditions: for Maltase inhibition rate: substrate maltose 20 mM, pH 6.8, 37° C., 15 minutes
Protocol: (§1) (Action to inhibit the hydrolytic activity of homogenate prepared from rabbit small intestine mucous membrane to carbohydrate)
(§2) A native kind of white rabbits (weight: 3.0-3.5 kg) were sacrificed by exsanguination to take out their small intestines.
(§3) After freezing and thawing the small intestines thus taken out, they were homogenized in a 5 mM EDTA buffer (pH: 7.0) and subjected to centrifugation for 60 minutes at 60,000×g. Precipitate thus formed was collected and suspended again in a 10 mM potassium phosphate buffer (pH: 7.0), thereby obtaining a crude enzyme suspension.
(§4) Sucrose (20 mM) and maltose (20 mM) were used as substrates.
(§5) Each reaction mixture was formulated so as to contain 350 microliters of a 100 mM maleate buffer (pH: 6.8), 100 microliters of a substrate solution, 50 microliters of the crude enzyme suspension and 50 microliters of a test solution. Substances to be tested were separately dissolved in a maleate buffer (pH: 6.8) before use.
(§6) Respective reactions were conducted for 15 minutes at 37° C.

rise in blood sugar = assay: Action to depress the rise in blood sugar after sucrose loading to mice; type: in vivo, ICR male mice; conditions: for Rise in blood sugar / action to depress the rise in blood sugar due to sucrose loading (in words): sucrose 1 g/kg; for Rise in blood sugar: average ± standard error; for action to depress the rise in blood sugar due to sucrose loading (in words): orally 25, 50 and 100 mg/kg (L-arabinose, D-xylose) or 100 mg/kg (others); for action to depress the rise in blood sugar for sucrose or starch loading (in words): summary statement
Description: (Action to depress the rise in blood sugar after carbohydrate loading)
ICR male mice (weight 30-35 g) were used in proportions of 5 mice per group.
After causing the mice to fast, sucrose or starch was orally administered in a proportion of 1 g/kg to the mice of each group, and at the same time substances to be tested were orally given to mice of their corresponding groups.
Blood was collected from the retroorbital sinus of each mouse before carbohydrate loading and upon elapsed times of 30 minutes, 60 minutes and 120 minutes after the loading to determine the concentration of glucose in the blood plasma by the glucose oxidase method.

[2] = target: T1, sucrase (carbohydrase derived from rabbit small intestine mucous membrane) (Oryctolagus cuniculus, UniProt P07768); assay: Action to inhibit the hydrolytic activity of homogenate prepared from rabbit small intestine mucous membrane: sucrase inhibition; type: biochemical; conditions: for inhibition at 2000 µg/mL / inhibition at 500 µg/mL / inhibition at 1000 µg/mL / inhibition at 250 µg/mL: 0.25 h, substrate sucrose 20 mM, pH 6.8, 37° C., 15 minutes, read-out: Sucrase inhibition rate; for inhibition at 2000 µg/mL: 200 mg/dl; for inhibition at 500 µg/mL: 50 mg/dl; for inhibition at 1000 µg/mL: 100 mg/dl; for inhibition at 250 µg/mL: 25 mg/dl
T1 construct: suspended again in a 10 mM potassium phosphate buffer (pH: 7.0), thereby obtaining a crude enzyme suspension; from tissue; host or cells: rabbit small intestine (title: mucous membrane), homogenate, 60,000×g precipitate
T1 sequence (P07768 1008-1827 limits assumed): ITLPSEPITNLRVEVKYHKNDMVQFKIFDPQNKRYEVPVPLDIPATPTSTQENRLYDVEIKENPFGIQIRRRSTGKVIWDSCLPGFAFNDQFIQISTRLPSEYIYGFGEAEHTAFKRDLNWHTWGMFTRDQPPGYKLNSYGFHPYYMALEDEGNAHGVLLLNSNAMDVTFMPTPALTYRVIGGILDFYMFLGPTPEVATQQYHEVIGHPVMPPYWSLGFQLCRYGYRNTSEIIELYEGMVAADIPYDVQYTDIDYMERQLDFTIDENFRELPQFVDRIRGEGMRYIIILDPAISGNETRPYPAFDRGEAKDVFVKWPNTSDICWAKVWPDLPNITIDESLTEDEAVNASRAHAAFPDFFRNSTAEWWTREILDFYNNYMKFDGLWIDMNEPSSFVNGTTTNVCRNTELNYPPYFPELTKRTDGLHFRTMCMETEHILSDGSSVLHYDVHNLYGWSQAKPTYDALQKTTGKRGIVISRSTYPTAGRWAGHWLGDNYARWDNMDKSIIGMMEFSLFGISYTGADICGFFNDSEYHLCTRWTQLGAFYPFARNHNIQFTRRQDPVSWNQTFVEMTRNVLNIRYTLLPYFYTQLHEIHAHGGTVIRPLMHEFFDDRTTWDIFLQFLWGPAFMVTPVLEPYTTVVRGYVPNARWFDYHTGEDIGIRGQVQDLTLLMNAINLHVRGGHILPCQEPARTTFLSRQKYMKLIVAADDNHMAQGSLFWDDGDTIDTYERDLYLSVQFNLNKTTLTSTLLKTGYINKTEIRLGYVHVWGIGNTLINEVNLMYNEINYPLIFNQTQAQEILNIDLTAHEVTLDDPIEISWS
T1 sequence (P07768 2-1007 partner limits assumed): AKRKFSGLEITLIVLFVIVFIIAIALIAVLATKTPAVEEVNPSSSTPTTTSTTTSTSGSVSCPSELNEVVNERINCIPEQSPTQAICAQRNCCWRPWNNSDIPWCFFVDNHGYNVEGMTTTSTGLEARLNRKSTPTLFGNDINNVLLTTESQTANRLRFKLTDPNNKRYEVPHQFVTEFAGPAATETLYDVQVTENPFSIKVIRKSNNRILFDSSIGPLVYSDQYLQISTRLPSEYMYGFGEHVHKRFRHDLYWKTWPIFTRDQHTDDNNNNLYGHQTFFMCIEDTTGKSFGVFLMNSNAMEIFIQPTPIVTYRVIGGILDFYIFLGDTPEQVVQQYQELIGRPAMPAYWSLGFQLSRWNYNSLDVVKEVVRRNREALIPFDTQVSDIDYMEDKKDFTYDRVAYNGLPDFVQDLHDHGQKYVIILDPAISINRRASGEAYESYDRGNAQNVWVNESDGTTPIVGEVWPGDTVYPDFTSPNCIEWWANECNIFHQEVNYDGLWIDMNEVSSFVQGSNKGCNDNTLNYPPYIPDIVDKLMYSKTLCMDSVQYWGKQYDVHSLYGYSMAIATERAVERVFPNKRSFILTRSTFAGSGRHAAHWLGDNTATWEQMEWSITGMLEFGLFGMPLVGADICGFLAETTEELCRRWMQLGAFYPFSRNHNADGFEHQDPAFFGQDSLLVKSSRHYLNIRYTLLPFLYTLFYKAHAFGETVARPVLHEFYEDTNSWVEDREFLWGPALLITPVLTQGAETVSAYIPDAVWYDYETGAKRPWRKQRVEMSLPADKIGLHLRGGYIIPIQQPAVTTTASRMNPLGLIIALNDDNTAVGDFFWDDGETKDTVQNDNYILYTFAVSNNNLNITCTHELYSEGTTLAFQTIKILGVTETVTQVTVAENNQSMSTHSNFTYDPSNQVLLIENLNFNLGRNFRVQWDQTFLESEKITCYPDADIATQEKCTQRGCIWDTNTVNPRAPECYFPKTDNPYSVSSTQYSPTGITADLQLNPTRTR
Protocol: as §1, §2, §3, §4, §5, §6

[3] = dose 100 mg/kg oral, after 30 min.
[4] = dose 100 mg/kg oral, after 60 min.
[5] = dose 100 mg/kg oral, after 120 min.

| Compound | maltase-inhibiting action (in words) [1] | Maltase inhibition rate ([1]; 200 mg/dl) [%] | Rise in blood sugar (rise in blood sugar; [3]) | Rise in blood sugar (rise in blood sugar; [4]) | Rise in blood sugar (rise in blood sugar; [5]) | action to depress the rise in blood sugar due to sucrose loading (in words) (rise in blood sugar) | action to depress the rise in blood sugar for sucrose or starch loading (in words) (rise in blood sugar) | sucrase-inhibiting action (in words) [2] | inhibition at 2000 µg/mL [2] [%] | inhibition at 500 µg/mL [2] [%] | inhibition at 1000 µg/mL [2] [%] | Maltase inhibition rate ([1]; 25 mg/dl) [%] | Maltase inhibition rate ([1]; 50 mg/dl) [%] | Maltase inhibition rate ([1]; 100 mg/dl) [%] | inhibition at 250 µg/mL [2] [%] | Rise in blood sugar (rise in blood sugar; dose 25 mg/kg oral, after 30 min.) | Rise in blood sugar (rise in blood sugar; dose 25 mg/kg oral, after 60 min.) | Rise in blood sugar (rise in blood sugar; dose 50 mg/kg oral, after 30 min.) | Rise in blood sugar (rise in blood sugar; dose 50 mg/kg oral, after 60 min.) | Rise in blood sugar (rise in blood sugar; dose 50 mg/kg oral, after 120 min.) |
| --- | --- | --- | --- | --- | --- | --- | --- | --- | --- | --- | --- | --- | --- | --- | --- | --- | --- | --- | --- | --- |
| O=C(CO)[C@@H](O)[C@H](O)CO [D-Xylulose, D-xylulose] | inhibiting actions second to these | 11.9 | 67.3 Δmg/dl | 59.7 Δmg/dl | 27.5 Δmg/dl | significantly depressed | effective action to depress the rise in blood sugar | inhibiting actions second to these | 19.9 | – | – | – | – | – | – | – | – | – | – | – |
| O=C[C@@H](O)[C@H](O)[C@@H](O)CO [L-Xylose, L-xylose] | inhibiting actions second to these | 19.4 | 66.3 Δmg/dl | 53.2 Δmg/dl | – | significantly depressed | effective action to depress the rise in blood sugar | inhibiting actions second to these | 24.5 | 8 | 11.9 | – | – | – | – | – | – | – | – | – |
| O=CC[C@@H](O)[C@@H](O)[C@H](O)CO [2-Deoxy-D-galactose, 2-deoxy-D-galactose] | strong sucrase-inhibiting action and maltase-inhibiting action | 32.8 | 61.1 Δmg/dl | 50.8 Δmg/dl | 26.2 Δmg/dl | significantly depressed | effective action to depress the rise in blood sugar | strong sucrase-inhibiting action | 34.8 | 15.5 | 21.6 | 11.2 | 13.4 | 19.3 | 13.7 | – | – | – | – | – |
| O=C[C@H](O)[C@@H](O)[C@H](O)CO [D-Xylose, D-xylose] | strong sucrase-inhibiting action and maltase-inhibiting action | 53.1 | 38.2 Δmg/dl | 45.2 Δmg/dl | 23.4 Δmg/dl | depressed in dependence on the dose | effective action to depress the rise in blood sugar | strong sucrase-inhibiting action | 59.8 | 35.5 | 49.5 | 29.2 | 36.4 | 44.3 | 28.5 | 76.3 Δmg/dl | 55.4 Δmg/dl | 62.5 Δmg/dl | 47.3 Δmg/dl | 24.0 Δmg/dl |
| O=C(CO)[C@H](O)[C@H](O)CO [D-Ribulose, D-ribulose] | inhibiting actions second to these | 20.1 | 65.6 Δmg/dl | 56.3 Δmg/dl | 28.1 Δmg/dl | significantly depressed | effective action to depress the rise in blood sugar | inhibiting actions second to these | 21.7 | – | – | – | – | – | – | – | – | – | – | – |
